Laboratory results published in patent US20210009583A1, “DEUTERATED IMIDAZOPYRIDINES” (UNIVERSITY OF NOTRE DAME DU LAC, priority 2018, published 2021).
“And” between values parts separate entries of the source, which are not always exact repeats. Identical values can stand only once. “Also recorded” adds a separate entry of the source. Like-named read-outs stand apart in the source and are kept apart here. Marks after values point to notes of the source that are not given here.

How the values were obtained:
[1] = Body weight at gross necropsy after 4 weeks of treatment (chronic model); type: in vivo, Balb/c mouse; conditions: individual mice
Method: When evaluated in the “Chronic Balb/c mouse model” of M. tuberculosis infection by the method of Lenaerts, A. J., et. al. 2005. Preclinical testing of the nitroimidazopyran PA-824 for activity against M. tuberculosis in a series of in vitro and in vivo models. AAC. 49(6):2294-301. ND-012101 at 200 mg/kg and ND-012101(100 mg/kg)+ABT (100 mg/kg) both achieved 100% mouse survival after 4 weeks of oral dosing.

M. tuberculosis = assay: Chronic Balb/c mouse model of M. tuberculosis infection; type: in vivo; conditions: for Spleen, gross necropsy observation: after 4 weeks of treatment, individual mice; for Lung Log10 CFU ± SEM / Spleen Log10 CFU ± SEM / Log reduction vs CTL (Lg) / Log reduction vs CTL (Sp): 4 Week Treatment; for Log reduction vs CTL (Lg): lung; for Log reduction vs CTL (Sp): spleen; for CFU drop (bacteriostatic activity) / Mouse survival: 4 weeks of oral dosing
[2] = Single dose pharmacokinetic study after oral administration, with and without ABT pre-dosing; type: in vivo, female Balb/c mice; conditions: for % AUC Extrap / Cmax / AUC(0-inf) / Tmax / half-life / AUC: female Balb/c mice, single oral dose 200 mg/kg; for concentration at 0.5 h / concentration at 2 h / concentration at 4 h / AUC(0-x)/Dose / AUC(0-∞)/Dose / Cmax/Dose / concentration at 8 h / concentration at 12 h / concentration at 24 h: female, Balb/c; for concentration at 0.5 h / concentration at 2 h / concentration at 4 h / AUC(0-x)/Dose / AUC(0-∞)/Dose / Cmax/Dose / concentration at 8 h / concentration at 12 h / concentration at 24 h / Cmax / AUC(0-inf) / Tmax / half-life / AUC: mouse, in vivo; for AUC: read-out: AUC(0-x)
Method: Based on MIC and acute toxicity data, two compounds ND-011176 and a deuterated analog ND-012101 were selected for evaluation in a single dose pharmacokinetic study (with and without pre-dosing of 1-Aminobenzotriazole, ABT) after oral administration to female Balb/c mice.
All animals were administered with the prepared test article via oral gavage at a target dose level of 200 mg/kg and at the dose volume detailed in the table 1 below. Each animal in Groups 2, 4, 6, 8 and 10 received a dose of ABT (100 mg/kg) via oral gavage two hours prior to Test Article administration.
Whole blood samples (0.1 mL each) were collected at the first time point via submandibular vein (SMV), or an appropriate peripheral vein if it was necessary. Up to 0.5 mL of whole blood was collected at terminal blood collection via intra cardiac puncture (ICP). For animals 1-3 from each of the 10 Groups, blood samples were collected at 0.5 and 4 hours after oral dosing. […]
The plasma samples and dose formulation samples were analyzed by the Testing Facility to determine the concentration of the test article using LC-MS/MS. PK parameters were estimated from the plasma concentration-time data by standard non-compartmental methods utilizing suitable analysis software.

TB infection = conditions: cited from earlier work
[3] = 0.5 h, PO 200 mg/kg + 100 mg/kg ABT
[4] = 0.5 h, PO 200 mg/kg, no ABT, 200 mg/kg
[5] = 2 h, PO 200 mg/kg + 100 mg/kg ABT
[6] = 2 h, PO 200 mg/kg, no ABT, 200 mg/kg
[7] = 4 h, PO 200 mg/kg + 100 mg/kg ABT
[8] = 4 h, PO 200 mg/kg, no ABT, 200 mg/kg
[9] = 5 h (mean of the "8" and "12" TP samples taken before euthanasia), PO 200 mg/kg + 100 mg/kg ABT
[10] = 8 h, PO 200 mg/kg, no ABT, 200 mg/kg
[11] = 12 h, PO 200 mg/kg, no ABT, 200 mg/kg
[12] = 0.5 h, PO 200 mg/kg + 100 mg/kg ABT, read-out: Drug plasma concentration, Average
[13] = 0.5 h, PO 200 mg/kg + 100 mg/kg ABT, read-out: Drug plasma concentration, individual mice
[14] = 2 h, PO 200 mg/kg + 100 mg/kg ABT, read-out: Drug plasma concentration, Average
[15] = 2 h, PO 200 mg/kg + 100 mg/kg ABT, read-out: Drug plasma concentration, individual mice
[16] = 4 h, PO 200 mg/kg + 100 mg/kg ABT, read-out: Drug plasma concentration, Average
[17] = 4 h, PO 200 mg/kg + 100 mg/kg ABT, read-out: Drug plasma concentration, individual mice
[18] = po, 200 mg/kg, 0.5 h, PO 200 mg/kg, no ABT, read-out: Drug plasma concentration, Average
[19] = po, 200 mg/kg, 0.5 h, PO 200 mg/kg, no ABT, read-out: Drug plasma concentration, individual mice
[20] = po, 200 mg/kg, 2 h, PO 200 mg/kg, no ABT, read-out: Drug plasma concentration, Average
[21] = po, 200 mg/kg, 4 h, PO 200 mg/kg, no ABT, read-out: Drug plasma concentration, Average
[22] = po, 200 mg/kg, 8 h, PO 200 mg/kg, no ABT, read-out: Drug plasma concentration, Average
[23] = po, 200 mg/kg, 12 h, PO 200 mg/kg, no ABT, read-out: Drug plasma concentration, Average
[24] = po, 200 mg/kg, 12 h, PO 200 mg/kg, no ABT, read-out: Drug plasma concentration, individual mice
[25] = ABT 100 mg/kg PO 2 h before, manually added from the TA concentration data

NNC(=O)c1ccncc1 [INH, Isoniazid, reference compound]
Weight ([1]; Group 8, INH): 19.6 and 20.2 and 20.1 and 19.9 and 19.2 and 20.8
Spleen, gross necropsy observation (M. tuberculosis; Group 8, INH): enlarged
Lung Log10 CFU ± SEM (M. tuberculosis; INH (25)): 4.06 ± 0.11 Log10 CFU
Spleen Log10 CFU ± SEM (M. tuberculosis; INH (25)): 2.13 ± 0.12^a Log10 CFU
Log reduction vs CTL (Lg) (M. tuberculosis; INH (25)): 1.73
Log reduction vs CTL (Sp) (M. tuberculosis; INH (25)): 2.87

Cc1ccc2nc(C)c(C(=O)NCc3ccc(C(F)(F)F)cc3)n2c1 [ND-011176]
Drug plasma concentration, individual mice [2, 3]: 18100 ng/mL and 22600 ng/mL
Drug plasma concentration, individual mice [2, 4]: 5140 ng/mL and 7170 ng/mL
Drug plasma concentration, individual mice [2, 5]: 29300 ng/mL and 38200 ng/mL
Drug plasma concentration, individual mice [2, 6]: 5280 ng/mL and 4450 ng/mL
Drug plasma concentration, individual mice [2, 7]: 34700 ng/mL and 44900 ng/mL
Drug plasma concentration, individual mice [2, 8]: 432 ng/mL and 507 ng/mL
Drug plasma concentration, Average [2, 9]: 41617^^ ng/mL
Drug plasma concentration, individual mice [2, 9]: 39200^^ ng/mL and 41600^^ ng/mL and 44050^^ ng/mL
Drug plasma concentration, individual mice [2, 10]: 110 ng/mL and 25 ng/mL and 88.2 ng/mL
Drug plasma concentration, individual mice [2, 11]: BQL and 28.8 ng/mL
Drug plasma concentration, individual mice ([2]; 24 h, PO 200 mg/kg, no ABT, 200 mg/kg): BQL
% AUC Extrap ([2]; no ABT): 0.00%
concentration at 0.5 h [2, 12]: 20100 ng/mL
concentration at 0.5 h [2, 13]: 19600 ng/mL
concentration at 2 h [2, 14]: 34600 ng/mL
concentration at 2 h [2, 15]: 36400 ng/mL
concentration at 4 h [2, 16]: 44800 ng/mL
concentration at 4 h [2, 17]: 54800 ng/mL
AUC(0-x)/Dose ([2]; po, 200 mg/kg): 78.4 ng·h/mL/mg/kg
AUC(0-∞)/Dose ([2]; po, 200 mg/kg): 78.4 ng·h/mL/mg/kg
Cmax/Dose ([2]; po, 200 mg/kg): 34 ng/mL/mg/kg
concentration at 0.5 h [2, 18]: 6730 ng/mL
concentration at 0.5 h [2, 19]: 7880 ng/mL
concentration at 2 h [2, 20]: 6100 ng/mL
concentration at 2 h ([2]; po, 200 mg/kg, 2 h, PO 200 mg/kg, no ABT, read-out: Drug plasma concentration, individual mice): 8580 ng/mL
concentration at 4 h [2, 21]: 600 ng/mL
concentration at 4 h ([2]; po, 200 mg/kg, 4 h, PO 200 mg/kg, no ABT, read-out: Drug plasma concentration, individual mice): 861 ng/mL
concentration at 8 h [2, 22]: 74 ng/mL
concentration at 12 h [2, 23]: 34 ng/mL
concentration at 12 h [2, 24]: 40.1 ng/mL
concentration at 24 h ([2]; po, 200 mg/kg, 24 h, PO 200 mg/kg, no ABT, read-out: Drug plasma concentration, Average): 8 ng/mL
concentration at 24 h ([2]; po, 200 mg/kg, 24 h, PO 200 mg/kg, no ABT, read-out: Drug plasma concentration, individual mice): 8.09 ng/mL
Cmax [2, 25]: 44800 ng/mL
AUC(0-inf) ([2]; no ABT): 15700 ng·h/mL
Cmax ([2]; no ABT): 6730 ng/mL
Tmax ([2]; no ABT): 30 min
half-life ([2]; no ABT): 102 min
AUC ([2]; no ABT): 15700 ng·h/mL
cfu reduction with respect to non-treated controls (TB infection; 300 mg/kg): 2 log cfu
cfu reduction with respect to non-treated controls (TB infection; 500 mg/kg): 2 log cfu
Signs of toxicity (TB infection; any of the administered doses): No signs of toxicity

[2H]c1c(C([2H])([2H])[2H])c([2H])n2c(C(=O)NCc3ccc(C(F)(F)F)cc3)c(C)nc2c1[2H] [ND-012101]
Weight ([1]; Group 3, ND-012101 + ABT): 20.4 (2×) and 20.8 and 20.0 and 20.5 and 18.6
Weight ([1]; Group 6, ND-012101 alone): 21.5 (2×) and 20.7 and 20.3 and 19.9 and 20.8
Drug plasma concentration, individual mice [2, 3]: 22700 ng/mL and 19100 ng/mL
Drug plasma concentration, individual mice [2, 4]: 23100 ng/mL and 19900 ng/mL
Drug plasma concentration, individual mice [2, 5]: 37700 ng/mL and 35500 ng/mL
Drug plasma concentration, individual mice [2, 6]: 7900 ng/mL and 3080 ng/mL and 4590 ng/mL
Drug plasma concentration, individual mice [2, 7]: 47200 ng/mL and 35000 ng/mL
Drug plasma concentration, individual mice [2, 8]: 1350 ng/mL and 3490 ng/mL and 966 ng/mL
Drug plasma concentration, Average [2, 9]: 50017^^ ng/mL
Drug plasma concentration, individual mice [2, 9]: 49100^^ ng/mL and 47600^^ ng/mL and 53350^^ ng/mL
Drug plasma concentration, individual mice [2, 10]: 67.6 ng/mL and 22.3 ng/mL and 100 ng/mL
Drug plasma concentration, individual mice [2, 11]: 2.10 ng/mL and 1.19 ng/mL
Drug plasma concentration, individual mice ([2]; 24 h, PO 200 mg/kg, no ABT): BQL
% AUC Extrap ([2]; no ABT): 0.00%
concentration at 0.5 h [2, 12]: 21700 ng/mL
concentration at 0.5 h [2, 13]: 23300 ng/mL
concentration at 2 h [2, 14]: 34300 ng/mL
concentration at 2 h [2, 15]: 29800 ng/mL
concentration at 4 h [2, 16]: 43500 ng/mL
concentration at 4 h [2, 17]: 48200 ng/mL
AUC(0-x)/Dose ([2]; po, 200 mg/kg): 125 ng·h/mL/mg/kg
AUC(0-∞)/Dose ([2]; po, 200 mg/kg): 125 ng·h/mL/mg/kg
Cmax/Dose ([2]; po, 200 mg/kg): 96 ng/mL/mg/kg
concentration at 0.5 h [2, 18]: 19200 ng/mL
concentration at 0.5 h [2, 19]: 14700 ng/mL
concentration at 2 h [2, 20]: 5190 ng/mL
concentration at 4 h [2, 21]: 1940 ng/mL
concentration at 8 h [2, 22]: 63 ng/mL
concentration at 12 h [2, 23]: 2 ng/mL
concentration at 12 h [2, 24]: 2 ng/mL
Cmax [2, 25]: 48400 ng/mL
AUC(0-inf) ([2]; no ABT): 25000 ng·h/mL
Cmax ([2]; no ABT): 19200 ng/mL
Tmax ([2]; no ABT): 60 min
half-life ([2]; no ABT): 47.4 min
AUC ([2]; no ABT): 25000 ng·h/mL
CFU drop (bacteriostatic activity) (M. tuberculosis; 100 mg/kg + ABT 100 mg/kg): < 1 log CFU
Mouse survival (M. tuberculosis; 100 mg/kg + ABT 100 mg/kg): 100%
CFU drop (bacteriostatic activity) (M. tuberculosis; 200 mg/kg): < 1 log CFU
Mouse survival (M. tuberculosis; 200 mg/kg): 100%
Spleen, gross necropsy observation (M. tuberculosis; Group 3, ND-012101 + ABT): Slightly enlarged
Spleen, gross necropsy observation (M. tuberculosis; Group 6, ND-012101 alone): Slightly enlarged; also recorded: normal
Lung Log10 CFU ± SEM (M. tuberculosis; ND-012101 (100) + ABT (100)): 5.62 ± 0.06 Log10 CFU
Spleen Log10 CFU ± SEM (M. tuberculosis; ND-012101 (100) + ABT (100)): 4.80 ± 0.14 Log10 CFU
Lung Log10 CFU ± SEM (M. tuberculosis; ND-012101 (200)): 5.93 ± 0.08 Log10 CFU
Spleen Log10 CFU ± SEM (M. tuberculosis; ND-012101 (200)): 5.02 ± 0.08 Log10 CFU
Log reduction vs CTL (Lg) (M. tuberculosis; ND-012101 (100) + ABT (100)): 0.17
Log reduction vs CTL (Lg) (M. tuberculosis; ND-012101 (200)): −0.14
Log reduction vs CTL (Sp) (M. tuberculosis; ND-012101 (100) + ABT (100)): 0.20
Log reduction vs CTL (Sp) (M. tuberculosis; ND-012101 (200)): −0.02
